Ends that are not written are not given here.
System: subjects with osteoarthritis of the knees
Assay: Clinical study of TPX-100, safety and tolerability of intra-articular administration
Assay type: in vivo, human

TDLQERGDNDISPFSGDGQPFKD-NH2 [TPX-100]
Dose-limiting toxicities (Part A, 20, 50, 100 and 200 mg per intra-articular injection, 4 weekly injections): no dose-limiting toxicities
Severe adverse events related to the drug treatment (throughout the study period): no severe adverse events likely or possibly related to the drug treatment
Severity of treatment-related adverse events (throughout the study period): mild or moderate, transient
Safety and tolerability of treatments (throughout the study period (12 months)): safe and well tolerated
